Bridge positions count the residues as written; N and C are the ends. Peptide text beside a SMILES is read from it. * marks the point of attachment. X13 = NCCCOCCOCCOCCCNC(=O)CCC(=O)NCCCOCCOCCOCCCNC(=O)CCC(=O)NCCCC[C@H](NC(=O)CCC(=O)NCCCOCCOCCOCCCN*)C(N)=O; X11 = NCCCC[C@H](NC(=O)CCC(=O)NCCCOCCOCCOCCCN*)C(N)=O
How the values were obtained:
DLL3 = biological target: T1, DLL3 (Homo sapiens, UniProt Q9NYJ7); assay: Binding of peptides with linkers and/or fluorescent agent to DLL3 (BLI, SPR; Table 6)
T1 construct: The recombinant DLL3 ectodomain (rhDLL3-Fc) was biotinylated; Fc
T1 sequence (Q9NYJ7 27-492 limits assumed): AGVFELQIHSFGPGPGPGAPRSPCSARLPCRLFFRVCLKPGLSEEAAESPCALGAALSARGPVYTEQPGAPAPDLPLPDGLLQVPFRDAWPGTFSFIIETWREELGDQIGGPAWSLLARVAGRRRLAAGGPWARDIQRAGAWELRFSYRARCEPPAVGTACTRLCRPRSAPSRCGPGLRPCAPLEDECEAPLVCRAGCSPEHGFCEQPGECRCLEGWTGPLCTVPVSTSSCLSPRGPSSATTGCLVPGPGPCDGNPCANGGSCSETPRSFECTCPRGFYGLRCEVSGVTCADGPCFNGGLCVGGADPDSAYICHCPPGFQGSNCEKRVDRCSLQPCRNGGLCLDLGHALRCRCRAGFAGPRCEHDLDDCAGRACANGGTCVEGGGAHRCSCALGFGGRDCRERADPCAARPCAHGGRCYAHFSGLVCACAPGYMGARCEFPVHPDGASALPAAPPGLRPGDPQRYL
Description: Binding kinetic assays were performed using Bio-layer interferometry (BLI) technology. The recombinant DLL3 ectodomain (rhDLL3-Fc) was biotinylated using EZ-Link Sulfo-NHS-LC-LC-Biotin Kit according to the manufacturer's protocol (Pierce by Thermo Fisher Scientific). The recombinant protein was incubated with an excess of NHS-LC-LC Biotin ester, in a molar ratio of 1:3 (protein: biotin), at 25° C. for 90 min. The un-reacted biotin ester was removed by subsequent buffer exchange on 0.5 ml Zeba spin desalting columns 7K MWCO (Pierce by Thermo Fisher Scientific).
The off-rate screening of the peptides was done using a Biacore T200 instrument (Cytiva, Sweden). […] Peptides were diluted at 300 nM in PBS-P+1× buffer (Cytiva, Sweden) supplemented with 1% DMSO and 0.1% BSA, then injected over the ligand for five minutes at 30 μl/min, finally dissociation allowed for 1 h. Sensorgrams were analyzed by Biacore T200 Evaluation Software 3.0 (Cytiva, Sweden): specific binding was obtained by subtracting unspecific binding to naked biosensors and a zero analyte concentration made of binding assay buffer (double referencing). Kinetic parameters of koff were measured using a global fitting according to 1:1 Langmuir binding isotherm equation.

[1] = biological target: T2, cell-surface hDLL3 (CHO cells) (Homo sapiens, UniProt Q9NYJ7); assay: Flow cytometry binding of fluorescence labelled peptides; assay type: cell-based; details: 100 nM AF647-labelled peptide; FIG. 1
T2 construct: expressed in transfected cells; host or cells: CHO (CHO-huDLL3)
T2 sequence (Q9NYJ7 27-618): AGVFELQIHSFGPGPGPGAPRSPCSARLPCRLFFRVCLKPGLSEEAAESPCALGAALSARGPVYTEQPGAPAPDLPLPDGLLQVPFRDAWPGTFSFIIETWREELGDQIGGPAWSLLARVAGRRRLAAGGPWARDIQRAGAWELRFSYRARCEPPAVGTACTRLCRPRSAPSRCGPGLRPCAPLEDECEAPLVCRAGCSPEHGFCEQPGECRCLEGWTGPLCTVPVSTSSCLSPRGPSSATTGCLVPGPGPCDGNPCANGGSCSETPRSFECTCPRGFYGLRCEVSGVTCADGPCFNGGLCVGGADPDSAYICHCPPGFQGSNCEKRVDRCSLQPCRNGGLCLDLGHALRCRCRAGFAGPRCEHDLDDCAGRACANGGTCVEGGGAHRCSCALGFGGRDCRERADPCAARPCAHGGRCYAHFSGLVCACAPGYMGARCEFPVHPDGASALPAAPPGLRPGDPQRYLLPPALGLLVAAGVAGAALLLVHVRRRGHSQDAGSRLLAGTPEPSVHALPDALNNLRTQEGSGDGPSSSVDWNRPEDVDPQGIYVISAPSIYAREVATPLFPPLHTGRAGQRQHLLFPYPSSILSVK
Description: HEK293-huDLL3, CHO-huDLL3 and the corresponding parental cell lines were detached with EDTA 2.5 mM and re-suspended at 1.8×10^6 cells/ml in FACS buffer (1×PBS, 2% FBS), distributed at 500 μl per testing tube and pelleted 5 min at 1300 rpm in a Heraeus Multifuge X3R centrifuge. […] After 1 hour incubation at room temperature, cells were washed once with FACS buffer, centrifuged and re-suspended in FACS buffer/1% formaldehyde. Samples were acquired on a FACS ARIA flow cytometer (Becton Dickinson) and data analysed by FACS Express software.

For `CC(C)[C@H](NC(=O)[C@@H](NC(=O)[C@H](CCC(=O)O)NC(=O)[C@H](C)N)[C@@H](C)O)C(=O)N[C@@H](CCC(=O)O)C(=O)N[C@@H](Cc1ccccc1)C(=O)N[C@@H](Cc1c[nH]c2ccccc12)C(=O)NCC(=O)N[C@H]1CSSC[C@@H](C(=O)N[C@@H](Cc2c[nH]c3ccccc23)C(=O)N[C@@H](Cc2c[nH]c3ccccc23)C(=O)NCCCOCCOCCOCCCNC(=O)CCC(=O)N[C@@H](CCCCn2nnc3c2-c2ccccc2CN(C(=O)CCNC(=O)CCCCC[N+]2=C(/C=C/C=C/C=C4/N(CCCS(=O)(=O)O)c5ccc(S(=O)(=O)O)cc5C4(C)C)C(C)(CCCS(=O)(=O)O)c4cc(S(=O)(=O)[O-])ccc42)c2ccccc2-3)C(N)=O)NC(=O)[C@H]([C@@H](C)O)NC(=O)[C@H](CCC(=O)O)NC(=O)[C@H](CC(N)=O)NC(=O)CNC(=O)[C@H](Cc2c[nH]c3ccccc23)NC(=O)[C@H]([C@@H](C)O)NC(=O)CNC(=O)[C@H]([C@@H](C)O)NC1=O` (stereo partly drawn) [PepSP1215], which Kd (DLL3) is on record?
Its Kd is 11.6 nM.

And the “binding to cells expressing hDLL3” value [1]?
The value was “binding”.

`CC(=O)N[C@@H](C)C(=O)N[C@@H](CCC(=O)O)C(=O)N[C@H](C(=O)N[C@H](C(=O)N[C@@H](CCC(=O)O)C(=O)N[C@@H](Cc1ccccc1)C(=O)N[C@@H](Cc1c[nH]c2ccccc12)C(=O)N[C@@H](Cc1c[nH]c2ccccc12)C(=O)N[C@H]1CSSC[C@@H](C(=O)N[C@H](C(=O)N[C@@H](Cc2c[nH]c3ccccc23)C(=O)NCC(=O)NCC(=O)NCCCOCCOCCOCCCNC(=O)CCC(=O)N[C@@H](CCCCN)C(N)=O)[C@@H](C)O)NC(=O)[C@H]([C@@H](C)O)NC(=O)[C@H](Cc2c[nH]c3ccccc23)NC(=O)[C@H](CC(N)=O)NC(=O)[C@H](CCC(=O)O)NC(=O)[C@H](CO)NC(=O)[C@H](CC(N)=O)NC(=O)CNC(=O)[C@H](CC(N)=O)NC1=O)C(C)C)[C@@H](C)O` [PepSP1324] (Ac-AETVEFWWCNGNSENWTCTWGG-X11; disulfide 9-18 (inferred)) was tested. Which Kd (DLL3) did it give?
The Kd was 29 ± 16 nM.

What about the RT (DLL3) of the same compound?
The RT was 189.3 ± 73^.

Which results are given for `CC(=O)N[C@@H](C)C(=O)N[C@@H](CCC(=O)O)C(=O)N[C@H](C(=O)N[C@H](C(=O)N[C@@H](CCC(=O)O)C(=O)N[C@@H](Cc1ccccc1)C(=O)N[C@@H](Cc1c[nH]c2ccccc12)C(=O)N[C@@H](Cc1c[nH]c2ccccc12)C(=O)N[C@H]1CSSC[C@@H](C(=O)N[C@H](C(=O)N[C@@H](Cc2c[nH]c3ccccc23)C(=O)NCC(=O)NCC(=O)NCCCOCCOCCOCCCNC(=O)CCC(=O)N[C@@H](CCCCNC(=O)CCC(=O)NCCCOCCOCCOCCCNC(=O)CCC(=O)NCCCOCCOCCOCCCN)C(N)=O)[C@@H](C)O)NC(=O)[C@H]([C@@H](C)O)NC(=O)[C@H](Cc2c[nH]c3ccccc23)NC(=O)[C@H](CC(N)=O)NC(=O)[C@H](CCC(=O)O)NC(=O)[C@H](CO)NC(=O)[C@H](CC(N)=O)NC(=O)CNC(=O)[C@H](CC(N)=O)NC1=O)C(C)C)[C@@H](C)O` [PepSP1342] (Ac-AETVEFWWCNGNSENWTCTWGG-X13; disulfide 9-18 (inferred))?
Kd (DLL3): 42 ± 8 nM; RT (DLL3): 198.9 ± 41.1

Reference: patent US20250074943A1, “DLL3 BINDING PEPTIDES AND USES THEREOF” (AMGEN INC., priority 2021, published 2025)
